Entries after “also recorded” stand apart in the source; their conditions may differ.
What was measured:
[1] = system: T47D cells; test: The glucose/galactose drug screen; format: cell-based, human; settings: 10 mM Glucose or Galactose, Selleck anti cancer and natural product libraries
Procedure: We conducted a second set of drug screens to identify unique sensitivities conferred by the Hi-OXPHOS state using parental T47D breast cancer cells (without 19S subunit suppression). For this screen, we used the NPC and CDL libraries as they contained the greatest number of hits in the Lo19S screen. We tested over 800 compounds at multiple concentrations and measured their effects on relative cell growth/viability when cells were grown under aerobic glycolysis conditions (glucose-supplemented medium) or forced mitochondrial respiration conditions (galactose-supplemented medium).
The glucose/galactose drug screen—T47D cells growing in regular media were collected counted and after centrifugation cells were re-suspended in RPM1 media without glucose containing 10% dialyzed serum with the addition of either 10 mM glucose or 10 mM galactose, Cells were then plated at 1000 cells/well in 384-well opaque, white assay plates (Coming, N.Y.), 50 uL per well, and incubated overnight at 37°C./5% CO2. Application of the drug libraries and cell viability was executed as described above for the Lo19S drug screen.

[2] = system: MCF7, HEK293 and T47D cells; test: Viability of cells grown in glucose (glycolytic) vs galactose (Hi-OXPHOS); format: cell-based, human; settings: screen
Procedure: FIGS. 40A-40D: Cancer cell metabolism alters sensitivity to elesclomol.
FIGS. 41A-41B: Cancer cell metabolism alters sensitivity to elesclomol.
FIGS. 51A-51D: Elesclomol preferentially targets cells in the Hi-OXPHOS state. […] The relative cell growth (color coded) was analyzed 72 hours post compound addition. Plotted are the mean SD of at least three replicas and the calculated EC50s (FIGS. 51B-51C). […] Reactive groups are indicated with a colored circle.
FIGS. 57A-57C: Elesclomol preferentially targets cells in the Hi-OXPHOS state. […] Analogs named compound 1-6. […] Plotted are the mean SD of at least three replicas and the calculated EC50s (FIG. 57A and FIG. 57C).

[3] = molecular target: T1, FDX1 (Homo sapiens, UniProt P10109); test: In vitro Fe-S cluster assembly with reduced FDX1 (absorbance at 456 nm); format: biochemical; settings: x5 concentration relative to enzyme
T1 construct: made in house
T1 sequence (P10109 62-184): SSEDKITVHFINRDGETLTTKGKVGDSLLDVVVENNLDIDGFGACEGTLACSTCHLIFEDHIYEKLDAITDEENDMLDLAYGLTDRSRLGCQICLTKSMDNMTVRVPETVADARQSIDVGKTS
Source text: FIGS. 47A-47C: Inhibition of Fe—S formation by elesclomol and variants (in-vitro). […] Note: “x(number) concentration” means that the indicated compound was present at 5 times the concentration of the enzyme.
(FIG. 53A) provides a schematic describing mitochondrial Fe—S cluster biosynthesis. The mitochondrial ISC (iron-sulfur cluster) core complex contains the scaffold protein ISCU and cysteine desulfurase (ACP-ISD11-NFS1)2. The latter catalyzes the conversion of cysteine to alanine and generates S° for iron sulfur cluster assembly. S° is reduced by FDX1. A [2Fe-2S] cluster is subsequently formed on ISCU. […] In vitro Fe—S cluster assembly was carried out with reduced. FDX1 as the reducing agent in the presence or absence of either 5× (green) or 10× (yellow) elesclomol (both relative to FDX1). Fe—S cluster formation was monitored by following the increase of absorbance at 456 nm. […] The red triangle denotes an NMR peak that became severely broadened. […] The [2Fe-2S] cluster in FDX1 is indicated by spheres.
The in vitro Fe—S cluster assembly was carried out with reduced FDX1 as the reducing agent and detected by following the increase of absorbance at 456 tun following the addition of either of 5× (green) or 10× (yellow, both relative to FDX1) compound-1. […] Fe—S formation was monitored by following the increase of absorbance at 456 nm. […] Cysteine desulfurase activity assay carried out with the indicated concentrations of elesclomol.

[4] = system: T47D cells; test: Cell viability, T47D cells with doxycycline-inducible PSMD2 shRNA (KD) vs control; format: cell-based, human
Procedure: FIGS. 37A-37E: Subunit suppression results in highly specific drug sensitivity alteration. Schematic representation of the drug screen setup. (FIG. 37A) 147D cells harboring a doxycycline-inducible PSMD2 shRNA were grown in the presence or absence of doxycycline for 48 hr. Cells were then collected, washed, and plated in the absence of doxycycline for 24 hr prior to exposure different compounds. Relative cell numbers were measured 3 days later. […] (FIGS. 37C-37E) The relative viability of the PSMD2 knockdown (KD) versus the control was calculated for replica experiments and the log2 of the ratio is plotted for 349 compounds from the Selleck anti-cancer L3000 drug library that were tested in 4 concentrations (FIG. 37C), the Selleck natural product library (NPC) comprising 502 compounds in 5 doses (FIG. 37D), and the NIH bioactive compound library that includes 731 compounds in 4 doses (FIG. 37E). Specific compounds are annotated.
The effect of transient PSMD2 reduction on growth of T47D cells in the presence of different proteasome inhibitors (bortezomib, MLN9708, carfilzomib, oprozornib) was tested. T47D cells harboring a doxycycline inducible control shRNA (GFP) or a doxycycline-inducible PSMD2 shRNA (TurhoRFP) were incubated with doxycycline for 3 days. Cells were then split and grown in the absence of Dox and proteasome inhibitors were then added at various concentrations. Cells were maintained in culture and then counted.
For the generation of the T47D Tet-inducible PSMD2 knockdown cell line- the TRIPZ vector with an inducible shRNA targeting PSMD2 was purchased from Dhannacon (clone V3THS_403760). It was introduced to the T47D cells according to manufactures protocol and cells were selected with puromycin 1 μg/ml for one week. The cells were exposed to doxycycline for 24 hours and cells were FACS sorted for the top 10% of most RFP expressing cells (highest expression of shRNA). The cells were further cultured in the absence of doxycycline and PSMD2 knockdown was induced as specified in the relevant Examples. The TRIPZ control GFP vector was created by removing the turboRFP from the TRIPZ control vector by digestion with Agel and ClaI and replacing it with GFP amplified with primers flanking with Agel and Clal restriction sites.
Cell Viability Assay—Relative cell growth and survival were measured in 96-well microplate format in the shRNA experiments and in 384 well format in the drug toxicity assays, by using the fluorescent detection of resazurin dye reduction as an endpoint (544 nm excitation and 590 run emission). 2,500 cells in 96 wells format or 1,000 cells in 384 well format were plated 24 hours before compound exposure (for 72 hours or indicated time). Each analysis was performed at least with three replicas.

[5] = system: T47D cells harboring a doxycycline inducible PSMD2 KD shRNA construct; test: Viability of PSMD2 knockdown versus control T47D cells, dose response and combinations (CellTiter-Glo); format: cell-based, human; settings: T47D, transient PSMD2 suppression versus control
Procedure: Cell viability was measured by CellTiter-Glot Luminescent Cell Viability Assay 72 hours after addition of the compounds to cells.
Cell viability was measured by CellTiter-Glo® Luminescent Cell Viability Assay 72 hours after addition of the compounds were added to cells.
Cell viability was measured by CellTiter-Glolk Luminescent Cell Viability Assay 72 hours after addition of the compounds to cells.
To directly test whether altered cellular metabolism can modulate the sensitivity of cancer cells to proteasome inhibitors, we engineered the breast cancer cell line T47D into Lo19S and increased OXPHOS states. Initially, we reconstituted the Lo19S state by transient suppression of the PSMD2 subunit of the 19S complex using an inducible shRNA.
To induce a high OXPHOS (Hi-OXPHOS) state, we changed the carbon source in the cell culture media from glucose to galactose, which is poorly fermentable. This method has been previously shown to drive glutamine utilization by mitochondria and to thus increase mitochondrial respiration (Gohil et al., 2010). […] We reasoned that the Hi-OXPHOS signature we identified in Lo19S patient tumors may cooperate with the Lo19S state to further promote the ability of the cells to withstand proteotoxic stress.
Cell viability—where indicated relative cell number following different drug treatment was conducted by plating cells at 1000 cells/well in 384 well plates. Indicated concentrations of compounds were added 24 hour after plating at least in triplicate for each condition. Viability was measured 72 hours after drug addition using cell titer-glo (Promega) according to manufactures protocol. Same protocol was applied for the experiments conducted for the Lo19S T47D, MCF7 and T47D in the context of altered carbon source only the cells were plated at 1000 cells/well in RPMI media (without glucose and with dialyzed serum) containing either 10 mM Glucose or lOmM galactose.

Compound: O=C(/C=C/c1cccnc1)NCCCCC1CCN(C(=O)c2ccccc2)CC1 [APO866]
- relative viability change of cells grown in glucose versus galactose [1]: predominantly more sensitive; also recorded: strongest hits in this screen
- targeting of glycolytic cancer cells [2]: preferentially targets glycolytic cancer cells

Compound: CN(NC(=O)CC(=O)NN(C)C(=S)c1ccccc1)C(=S)c1ccccc1 [SAT-4783]
- in vitro formation of Fe-S clusters mediated by FDX1 [3]: inhibition

Compound: CC(C)C[C@H](NC(=O)[C@H](CCc1ccccc1)NC(=O)CN1CCOCC1)C(=O)N[C@@H](Cc1ccccc1)C(=O)N[C@@H](CC(C)C)C(=O)[C@@]1(C)CO1 [carfilzomib]
- resistance of cells harboring PSMD2 shRNA vs parental line (EC50) ([4]; T47D, transient PSMD2 reduction): EC50 values increased considerably

Compound: CC(C)C[C@H](NC(=O)CNC(=O)c1cc(Cl)ccc1Cl)B(O)O [ixazomib]
- increase of proliferation inhibition EC50 on inducing the Lo19S state [5]: ~4 fold
- fold increase in EC50 induced by transient PSMD2 knockdown (KD) ([4]; T47D cells, PSMD2 KD vs control): 50-100 fold

— US20180353445A1, “METHODS AND COMPOSITIONS RELATING TO PROTEASOME INHIBITOR RESISTANCE” (Whitehead Institute for Biomedical Research, priority 2017, published 2018)
